Data as given in US11286268B1, “EIF4E-inhibiting compounds and methods” (EFFECTOR THERAPEUTICS, INC., priority 2019, dated 2022).
Like-named read-outs stand apart in the source and are kept apart here.

Target: recombinant eIF4E (Homo sapiens (Human), UniProt P06730)
Experiment: Fluorescence polarization competition assay for eIF4E binding potency
Method in brief: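 Protein and fluorescent cap-analog probe (EDA-m7GDP-ATTO-550) were mixed first for 5 min, after which serially diluted compound was added to final 75 nM eIF4E, 20 nM probe, 1% DMSO. Reactions equilibrated 30 min at room temperature before polarization was measured.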

[1] = fluorescence polarization competition, 75 nM recombinant eIF4E, 20 nM EDA-m7GDP-ATTO-550, IC50 class, read-out: elF4E FP
[2] = inhibition of eIF4E/EDA-m7GDP-ATTO-550 binding by 50%, Table 4B calculated values, read-out: IC50

Chain of recombinant eIF4E (P06730 whole entry): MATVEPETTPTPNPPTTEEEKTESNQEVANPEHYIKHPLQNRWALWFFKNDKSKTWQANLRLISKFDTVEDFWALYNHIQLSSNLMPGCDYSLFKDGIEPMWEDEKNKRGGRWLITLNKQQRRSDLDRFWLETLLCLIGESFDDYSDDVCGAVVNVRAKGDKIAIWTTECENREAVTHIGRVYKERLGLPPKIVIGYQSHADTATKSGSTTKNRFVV

IC50 [1] [nM]	IC50 [2] [nM]	SMILES
< 50	–	Cc1nc2cnc(N(C)[C@H]3CC[C@H](N4CC(F)(F)C4)CC3)c(C#N)c2c(=O)n1CC#Cc1ccc(Cl)cc1-c1ccnc2c(C(=O)O)csc12 [compound 1099]
< 50	33.5	Cc1nc2cnc(N(C)[C@H]3CC[C@@H](N4CC(F)(F)C4)CC3)c(C#N)c2c(=O)n1CC#Cc1ccc(Cl)cc1-c1ccnc2c(C(=O)O)csc12 [compound 1100]
< 50	7.2	Cc1nc2cnc(N3CCN(C4CC4)CC3(C)C)c(C#N)c2c(=O)n1CCOc1ccc(Cl)cc1-c1ccnc2c(C(=O)O)csc12 [compound 1101]
< 50	14.8	Cc1nc2cnc(N(C)C3CCN(CC(F)(F)C(F)F)CC3)c(C#N)c2c(=O)n1CC#Cc1ccc(Cl)cc1-c1ccnc2c(C(=O)O)csc12 [compound 1103]
< 50	10.5	Cc1nc2cnc(N(C)C3CCN(CC(F)(F)C(C)(F)F)CC3)c(C#N)c2c(=O)n1CC#Cc1ccc(Cl)cc1-c1ccnc2c(C(=O)O)csc12 [compound 1107]
< 50	29.1	Cc1nc2cnc(N(C)C3CCN(C4CC(F)(F)C4)CC3)c(C#N)c2c(=O)n1CC#Cc1ccc(Cl)cc1-c1ccnc2c(C(=O)NS(C)(=O)=O)csc12 [compound 1108]
< 50	7.2	Cc1nc2cnc(N(C)C3CCN(C4CC(F)(F)C4)CC3)c(C#N)c2c(=O)n1CC#Cc1ccc(Cl)cc1-c1ccnc2c(C(=O)NS(=O)(=O)c3cccnc3)csc12 [compound 1110]
< 50	5.71	Cc1nc2cnc(N(C)C3CCN(C4CC(F)(F)C4)CC3)c(C#N)c2c(=O)n1CC#Cc1ccc(Cl)cc1-c1ccnc2c(C(=O)NS(=O)(=O)c3ccncc3)csc12 [compound 1111]
< 50	17.1	Cc1nc2cnc(C3CCN(CC(F)(F)F)CC3)c(C#N)c2c(=O)n1CC#Cc1ccc(Cl)cc1-c1ccnc2c(C(=O)O)csc12 [compound 1116]
< 50	14	Cc1nc2cnc(N(C)C3CCN(C4(C)COC4)CC3)c(C#N)c2c(=O)n1CC#Cc1ccc(Cl)cc1-c1ccnc2c(C(=O)O)csc12 [compound 1118]
< 50	14.5	Cc1nc2cnc(N(C)C3CCN(CC(F)(F)C4CC4)CC3)c(C#N)c2c(=O)n1CC#Cc1ccc(Cl)cc1-c1ccnc2c(C(=O)O)csc12 [compound 1125]
< 50	23.9	Cc1nc2cnc(N(C)C3CCN(CC(=O)C4CC4)CC3)c(C#N)c2c(=O)n1CCOc1ccc(Cl)cc1-c1ccnc2c(C(=O)O)csc12 [compound 1128]
< 50	15.3	Cc1nc2cnc(N(C)C3CCN(CC(F)(F)CF)CC3)c(C#N)c2c(=O)n1CC#Cc1ccc(Cl)cc1-c1ccnc2c(C(=O)O)csc12 [compound 1134]
< 50	17	Cc1nc2cnc(N3CCC4(CC3)CN(CC(F)F)C4)c(C#N)c2c(=O)n1CC#Cc1ccc(Cl)cc1-c1ccnc2c(C(=O)O)csc12 [compound 1136]
< 50	17.4	Cc1nc2cnc(N3CCC4(CC3)CN(CC(C)(F)F)C4)c(C#N)c2c(=O)n1CC#Cc1ccc(Cl)cc1-c1ccnc2c(C(=O)O)csc12 [compound 1137]
< 50	23.7	Cc1cc(-c2cc(Cl)ccc2OCCn2c(C)nc3ccc(CCN(C)C)c(C#N)c3c2=O)c2scc(C(=O)NS(C)(=O)=O)c2n1 [compound 1138]
< 50	6.14	Cc1nc2cnc(N(C)C3CCN(CC(F)(F)F)CC3)c(C#N)c2c(=O)n1CC#Cc1ccc(Cl)cc1-c1ccnc2c(C(=O)O)csc12 [compound 1140]
< 50	13	Cc1nc2cnc(N(C)C3CCN(CC(C)(C)F)CC3)c(C#N)c2c(=O)n1CC#Cc1ccc(Cl)cc1-c1ccnc2c(C(=O)O)csc12 [compound 1142]
< 50	24.6	Cc1nc2cnc(N(C)C3CCN(CC(C)(F)F)CC3)c(C#N)c2c(=O)n1CC#Cc1ccc(Cl)cc1-c1ccnc2c(C(=O)NS(=O)(=O)c3ccncc3)csc12 [compound 1143]
< 50	33.1	Cc1cc(-c2cc(Cl)ccc2OCCn2c(C)nc3cnc(N4CCN(C)CC4)c(C#N)c3c2=O)c2scc(C(=O)O)c2n1 [compound 1145]
< 50	35.6	Cc1nc(-c2ccccc2C(F)(F)F)c(C#N)c2c(=O)n(CCOc3ccc(Cl)cc3-c3ccnc4c(C(=O)O)csc34)c(C)nc12 [compound 1148]

The next lines start with the molecule.

SMILES	IC50 [1] [nM]	IC50 [2] [nM]
Cc1cc(-c2cc(Cl)ccc2OCCn2c(C)nc3cc(C(F)(F)F)c(N4CCN(C)CC4)nc3c2=O)c2sc(C)c(C(=O)O)c2n1 [compound 1096]	< 50	33.5
Cc1cc(-c2cc(Cl)ccc2OCCn2c(C)nc3cnc(N4CCC(F)(F)CC4)c(C#N)c3c2=O)c2scc(C(=O)O)c2n1 [compound 1097]	< 50	38.8
Cc1cc(-c2cc(Cl)ccc2OCCn2c(C)nc3cc(-c4cccnc4)c(Cl)c(C#N)c3c2=O)c2scc(C(=O)O)c2n1 [compound 1098]	< 50	15.6
Cc1nc2cnc(N3CCN(C4CC4)CC3(C)C)c(C#N)c2c(=O)n1CC#Cc1ccc(Cl)cc1-c1ccnc2c(C(=O)O)csc12 [compound 1102]	< 50	19.2
COC(=O)c1csc2c(-c3cc(Cl)ccc3C#CCn3c(C)nc4cnc(N5CCN(CCOC(F)(F)F)CC5)c(C#N)c4c3=O)ccnc12 [compound 1104]	50 to 1000	631
Cc1nc2cnc(N(C)C3CCN(CC(C)(F)F)CC3)c(C#N)c2c(=O)n1CC#Cc1ccc(Cl)cc1-c1ccnc2c(C(=O)NS(=O)(=O)CC(F)F)csc12 [compound 1105]	< 50	21.7
Cc1nc2cnc(N(C)C34CCC(N(C)CCF)(CC3)C4)c(C#N)c2c(=O)n1CC#Cc1ccc(Cl)cc1-c1ccnc2c(C(=O)O)csc12 [compound 1106]	< 50	17.4
Cc1nc2cnc(N(C)C3CCN(C4CC(F)(F)C4)CC3)c(C#N)c2c(=O)n1CC#Cc1ccc(Cl)cc1-c1ccnc2c(C(=O)NS(=O)(=O)c3ccccn3)csc12 [compound 1109]	< 50	13.4
Cc1nc2cnc(N(C)C3CCN(CC(F)F)CC3)c(C#N)c2c(=O)n1CC#Cc1ccc(Cl)cc1-c1ccnc2c(C(=O)O)csc12 [compound 1112]	< 50	19.9
COC(=O)c1csc2c(-c3cc(Cl)ccc3C#CCn3c(C)nc4cnc(N(C)C5CCN(CC(F)F)CC5)c(C#N)c4c3=O)ccnc12 [compound 1113]	50 to 1000	140
Cc1nc2c(C3CCN(CC(F)(F)F)CC3)ncc(C#N)c2c(=O)n1CCOc1ccc(Cl)cc1-c1ccnc2c(C(=O)O)csc12 [compound 1115]	< 50	6.77
Cc1nc2cnc(C3CCN(CC(F)(F)F)CC3)c(C#N)c2c(=O)n1CCOc1ccc(Cl)cc1-c1ccnc2c(C(=O)O)csc12 [compound 1117]	< 50	13.4
Cc1nc2cnc(N(C)C3CCN(CC(F)(F)C(F)(F)F)CC3)c(C#N)c2c(=O)n1CC#Cc1ccc(Cl)cc1-c1ccnc2c(C(=O)O)csc12 [compound 1119]	< 50	14.6
Cc1nc2cnc(N(C)C3CCCCC3)c(C#N)c2c(=O)n1CC#Cc1ccc(Cl)cc1-c1ccnc2c(C(=O)O)csc12 [compound 1120]	< 50	9.51
Cc1nc2cnc(/C=C/CN3CCC(F)(F)CC3)c(C#N)c2c(=O)n1CCOc1ccc(Cl)cc1-c1ccnc2c(C(=O)O)csc12 [compound 1121]	< 50	9.26
Cc1nc2cnc(/C=C/CN3CC(F)C3)c(C#N)c2c(=O)n1CCOc1ccc(Cl)cc1-c1ccnc2c(C(=O)O)csc12 [compound 1122]	< 50	14.6
Cc1nc2cnc(/C=C/C3(N(C)C)CC3)c(C#N)c2c(=O)n1CCOc1ccc(Cl)cc1-c1ccnc2c(C(=O)O)csc12 [compound 1123]	< 50	21.5
Cc1nc2cnc(N(C)C3CCN(CC(F)(F)C4CC4)CC3)c(C#N)c2c(=O)n1CCOc1ccc(Cl)cc1-c1ccnc2c(C(=O)O)csc12 [compound 1126]	< 50	26.6
Cc1nc2cnc(N(C)C3CCN(CC(=O)C(C)C)CC3)c(C#N)c2c(=O)n1CCOc1ccc(Cl)cc1-c1ccnc2c(C(=O)O)csc12 [compound 1127]	< 50	12.9
Cc1nc2cnc(N(C)C3CCN(C4(C(F)(F)CO)CC4)CC3)c(C#N)c2c(=O)n1CC#Cc1ccc(Cl)cc1-c1ccnc2c(C(=O)O)csc12 [compound 1131]	< 50	14.7
Cc1nc2cnc(N(C)C3CCN(CC(F)(F)CO)CC3)c(C#N)c2c(=O)n1CC#Cc1ccc(Cl)cc1-c1ccnc2c(C(=O)O)csc12 [compound 1132]	< 50	13.3
COCC(F)(F)CN1CCC(N(C)c2ncc3nc(C)n(CC#Cc4ccc(Cl)cc4-c4ccnc5c(C(=O)O)csc45)c(=O)c3c2C#N)CC1 [compound 1133]	< 50	17
Cc1nc2cnc(N(C)C3CCN([C@H]4C[C@H](OC(F)F)C4)CC3)c(C#N)c2c(=O)n1CC#Cc1ccc(Cl)cc1-c1ccnc2c(C(=O)O)csc12 [compound 1135]	< 50	34.3
Cc1nc2cnc(N(C)C3CCN(CC(C)(F)F)CC3)c(C#N)c2c(=O)n1CC#Cc1ccc(Cl)cc1-c1ccnc2c(C(=O)NS(=O)(=O)c3cccnc3)csc12 [compound 1144]	< 50	34.4
Cc1nc2cnc(N(C)C3CCN(CC(C)(F)F)CC3)c(C#N)c2c(=O)n1CC#Cc1ccc(Cl)cc1-c1ccnc2c(C(=O)NS(=O)(=O)c3ccccn3)csc12 [compound 1146]	< 50	14.4
Cc1nc2cccc(C#N)c2c(=O)n1CCOc1ccc(Cl)cc1-c1cccc(C(=O)O)c1 [compound 1147]	< 50	44.6
